From article PMC6540285, “Evaluation of Protein Kinase Inhibitors with PLK4 Cross-Over Potential in a Pre-Clinical Model of Cancer” (International Journal of Molecular Sciences, 2019)
Like-named read-outs stand apart in the source and are kept apart here.

How the values were obtained:
[1] = test system: DAOY cells; assay type: cell-based; details: Homo sapiens, read-out: MTT: IC50 of the proliferation assay
[2] = test system: D283 cells; assay type: cell-based
[3] = test system: BT-16 cells; assay type: cell-based; details: BT-16, read-out: MTT: IC50 of the proliferation assay
[4] = test system: D283 cells; assay: PrestoBlue Cell Viability assay; assay type: cell-based
Protocol: (§1) Cell viability was assessed using the Presto Blue™ Cell Viability reagent (Thermo Fisher Scientific, Carlsbad, CA, USA) following the manufacturer’s instructions. Cells were plated in 96-well plates at the same densities described above for the proliferation assay. The fluorescence was measured after 24, 48, 72, and 96 h at concentrations ranging from 0.001 to 10 µM of the inhibitor. All assays were performed in triplicate.

[5] = test system: BT-16 cells; assay: PrestoBlue Cell Viability assay; assay type: cell-based
Protocol: as §1

[6] = test system: DAOY cells; assay: PrestoBlue Cell Viability assay; assay type: cell-based; details: Homo sapiens, read-out: PB: IC50 of the PrestoBlue Viability assay
Protocol: as §1

[7] = test system: BT-12 cells; assay: PrestoBlue Cell Viability assay; assay type: cell-based
Protocol: as §1

[8] = test system: MON cells; assay: PrestoBlue Cell Viability assay; assay type: cell-based; details: read-out: PB: IC50 of the PrestoBlue Viability assay
Protocol: as §1

[9] = biological target: AURKB (Homo sapiens, UniProt Q96GD4); assay: Z' LYTE Kinase Assay, 10-point IC50; assay type: biochemical; details: SelectScreen, 10-point titration
Sequence of AURKB (Q96GD4 whole entry): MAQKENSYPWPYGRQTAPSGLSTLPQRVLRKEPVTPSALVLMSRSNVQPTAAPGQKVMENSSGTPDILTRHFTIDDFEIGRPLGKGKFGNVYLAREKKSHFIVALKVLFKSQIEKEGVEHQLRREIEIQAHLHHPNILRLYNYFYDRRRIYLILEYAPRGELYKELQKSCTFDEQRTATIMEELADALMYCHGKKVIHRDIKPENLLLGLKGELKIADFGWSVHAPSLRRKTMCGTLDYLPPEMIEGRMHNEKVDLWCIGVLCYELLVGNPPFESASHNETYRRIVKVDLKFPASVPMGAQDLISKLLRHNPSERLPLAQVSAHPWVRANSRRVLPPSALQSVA
Text: (§2) Curves were generated from the compound concentration and the corresponding percent (%) inhibition calculated for each concentration tested. For PLK4, we used the LanthaScreen Eu Kinase Binding Assay (Thermo Fisher Scientific, Carlsbad, CA, USA) that utilizes an Alexa Fluor conjugated “tracer” and an Eu-labeled anti-tag antibody to measure binding of a compound to the kinase target. For AURKs (AURKA, AURKB and AURKC) we used the Z’ LYTE Kinase Assay (Thermo Fisher Scientific, Carlsbad, CA, USA) that determines the differential sensitivity of phosphorylated and non-phosphorylated peptide substrates to proteolytic cleavage using a FRET-based readout.

[10] = biological target: T1, AURKC (Homo sapiens, UniProt Q9UQB9); assay: Z' LYTE Kinase Assay, 10-point IC50; assay type: biochemical; details: SelectScreen, 10-point titration
T1 sequence (Q9UQB9 1-309): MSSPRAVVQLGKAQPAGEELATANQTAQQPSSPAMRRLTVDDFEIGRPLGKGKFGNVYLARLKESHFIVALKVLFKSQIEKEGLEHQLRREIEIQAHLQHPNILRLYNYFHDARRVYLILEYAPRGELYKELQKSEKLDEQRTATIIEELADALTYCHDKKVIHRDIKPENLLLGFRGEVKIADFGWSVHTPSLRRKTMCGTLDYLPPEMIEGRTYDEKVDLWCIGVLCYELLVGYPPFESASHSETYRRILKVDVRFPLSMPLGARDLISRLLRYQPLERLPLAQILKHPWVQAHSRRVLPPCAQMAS
Text: as §2

[11] = biological target: T2, AURKA (Homo sapiens, UniProt O14965); assay: Z' LYTE Kinase Assay, 10-point IC50; assay type: biochemical; details: SelectScreen, 10-point titration
T2 sequence (O14965 1-403): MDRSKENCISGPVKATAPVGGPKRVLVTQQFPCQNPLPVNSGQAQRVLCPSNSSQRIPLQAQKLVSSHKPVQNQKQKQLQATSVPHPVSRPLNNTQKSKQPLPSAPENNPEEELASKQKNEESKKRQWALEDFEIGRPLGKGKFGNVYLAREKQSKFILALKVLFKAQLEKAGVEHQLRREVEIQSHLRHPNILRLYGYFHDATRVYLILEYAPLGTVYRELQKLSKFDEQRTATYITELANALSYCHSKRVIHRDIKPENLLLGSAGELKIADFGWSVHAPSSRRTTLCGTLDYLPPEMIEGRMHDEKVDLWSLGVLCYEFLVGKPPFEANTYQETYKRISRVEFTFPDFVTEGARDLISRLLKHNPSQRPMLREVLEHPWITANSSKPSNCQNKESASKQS
Text: as §2

[12] = test system: BT-12 cells; assay type: cell-based; details: Homo sapiens, BT-12, read-out: MTT: IC50 of the proliferation assay
[13] = test system: MON cells; assay: cells; details: read-out: MTT: IC50 of the proliferation assay
[14] = biological target: T3, PLK4 (Homo sapiens, UniProt O00444); assay: LanthaScreen Eu Kinase Binding Assay, 10-point IC50; details: SelectScreen, 10-point titration
T3 sequence (O00444 1-970): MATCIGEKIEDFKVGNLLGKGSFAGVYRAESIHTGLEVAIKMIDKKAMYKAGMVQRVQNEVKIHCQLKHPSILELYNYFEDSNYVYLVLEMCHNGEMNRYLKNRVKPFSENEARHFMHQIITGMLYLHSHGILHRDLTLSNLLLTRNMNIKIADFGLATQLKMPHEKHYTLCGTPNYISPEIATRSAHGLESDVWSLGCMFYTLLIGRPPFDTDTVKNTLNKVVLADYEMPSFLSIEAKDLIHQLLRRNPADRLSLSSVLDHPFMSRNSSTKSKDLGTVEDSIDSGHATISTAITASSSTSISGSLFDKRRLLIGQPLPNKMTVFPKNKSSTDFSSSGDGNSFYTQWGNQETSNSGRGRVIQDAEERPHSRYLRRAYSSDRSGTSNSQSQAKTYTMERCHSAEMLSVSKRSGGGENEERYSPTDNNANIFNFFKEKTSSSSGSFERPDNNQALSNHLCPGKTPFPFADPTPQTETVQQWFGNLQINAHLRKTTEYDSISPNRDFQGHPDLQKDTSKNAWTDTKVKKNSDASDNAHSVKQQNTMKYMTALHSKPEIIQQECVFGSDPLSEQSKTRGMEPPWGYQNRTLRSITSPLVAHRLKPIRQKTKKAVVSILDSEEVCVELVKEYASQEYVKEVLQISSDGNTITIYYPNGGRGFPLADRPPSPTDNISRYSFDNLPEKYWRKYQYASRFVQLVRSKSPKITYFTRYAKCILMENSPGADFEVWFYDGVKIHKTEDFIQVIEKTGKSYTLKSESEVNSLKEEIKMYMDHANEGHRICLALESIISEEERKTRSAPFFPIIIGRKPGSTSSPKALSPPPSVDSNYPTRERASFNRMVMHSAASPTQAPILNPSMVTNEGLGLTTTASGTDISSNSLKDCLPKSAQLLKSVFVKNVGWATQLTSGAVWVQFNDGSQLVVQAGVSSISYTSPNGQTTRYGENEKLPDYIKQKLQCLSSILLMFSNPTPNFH
Text: as §2

[15] = test system: RT and MB cells; assay: Beta-galactosidase senescence assay; assay type: cell-based; details: all cell lines
Protocol: Senescence was evaluated using the Beta-galactosidase assay (Senescence Cells Histochemical Staining Kit CS0030 (Sigma, St Louis, MO, USA) and clonogenic recovery assay as previously described.

[16] = test system: RT and MB cells; assay: Clonogenic colony formation assay; assay type: cell-based; details: 50nM
Protocol: All cell lines were seeded at 200 cells per well in six-well plates and incubated overnight. After 24 h, the treatment medium was added and changed once a week. Cells were treated with 0.01, 0.05, 0.1, 0.2, 0.5, 1, 5, and 10 µM of PLK4i and 0.1% DMSO as control. After 14 days, the cells were washed twice with 1x PBS, fixed with formalin, and stained with Cresyl violet (ACROS Organics, Pittsburgh, PA, USA). Colonies were counted using the ImageJ software (www.imagej.nih.gov, accessed on April 21, 2017).

[17] = test system: RT and MB cells; assay: Cell cycle analysis (PI flow cytometry); assay type: cell-based; details: for polyploidy: cell lines tested, concentration not given
Protocol: Cell cycle analysis was performed by flow cytometry of cells stained with Propidium Iodide (PI) (Thermo Fisher Scientific, Carlsbad, CA, USA) according to manufacturer’s instructions. Cells treated with the top PLK4i candidates and 0.1% DMSO (control) were fixed in 80% ethanol overnight, stained with PI, and then subjected to flow cytometric analysis using a BD Fortessa instrument (BD Biosciences, San Jose, CA, USA). Data was analyzed using Modfit LT from Verity Software House (Topsham, ME, USA). All experiments were performed in triplicate.

[18] = D283, read-out: MTT: IC50 of the proliferation assay
[19] = D283, read-out: PB: IC50 of the PrestoBlue Viability assay
[20] = BT-16; read-out: PB: IC50 of the PrestoBlue Viability assay
[21] = Homo sapiens, BT-12; read-out: PB: IC50 of the PrestoBlue Viability assay
[22] = BT-16, read-out: PB: IC50 of the PrestoBlue Viability assay
[23] = Homo sapiens, BT-12, read-out: PB: IC50 of the PrestoBlue Viability assay

| SMILES | IC50 [1] | IC50 [2, 18] | IC50 [3] | IC50 [4, 19] | IC50 [5, 20] | IC50 [6] | IC50 [7, 21] | IC50 [8] | IC50 [9] | IC50 [10] | IC50 [11] | IC50 [12] | IC50 [13] | IC50 [14] | cell senescence (beta-galactosidase) [15] | colony formation [16] | polyploidy [17] | IC50 [5, 22] | IC50 [7, 23] | also measured |
| --- | --- | --- | --- | --- | --- | --- | --- | --- | --- | --- | --- | --- | --- | --- | --- | --- | --- | --- | --- | --- |
| COc1cc2c(cc1F)C(c1ccccc1Cl)=Nc1c(n[nH]c1C)N2 [R1530] | 829 nM | > 10000 nM | 3900 nM | > 10000 nM | > 10000 nM | 1850 nM | > 10000 nM | 3750 nM | 42.6 nM | 30.9 nM | 6.22 nM | > 10000 nM | 3200 nM | 7.06 nM | – | – | – | – | – | – |
| COc1cc(Nc2ncc3c(n2)-c2ccc(Cl)cc2C(c2c(F)cccc2OC)=NC3)ccc1C(=O)O [alisertib] | 340 nM | – | – | – | > 10000 nM | 31 nM | > 10000 nM | – | – | 9.43 nM | – | – | 358 nM | – | – | – | – | – | – | IC50 ([2]; D283; read-out: MTT: IC50 of the proliferation assay): 9530 nM; IC50 ([4]; D283; read-out: PB: IC50 of the PrestoBlue Viability assay): 9130 nM; IC50 ([8]; MON): 213 nM |
| COc1c(Nc2cc(C)[nH]n2)nc(Sc2ccc(S(=O)(=O)Cc3cccc([N+](=O)[O-])c3F)cc2F)nc1N1CCOCC1 [centrinone] | – | – | – | – | – | 4500 nM | – | 5000 nM | 680 nM | 493 nM | 108 nM | – | – | – | induction of cell senescence | complete inhibition of colony formation in all cell lines except the MB cell line DAOY and the RT cell line BT-16 | did not induce polyploidy | 2220 nM | 3400 nM | polyploidy (cell cycle analysis) ([17]; 1µM): no polyploidy |
| COc1c(Nc2cc(C)[nH]n2)nc(Sc2ccc(S(=O)(=O)Cc3cccc([N+](=O)[O-])c3F)cc2F)nc1N1CCCCC1 [centrinone B] | > 10000 nM | 1240 nM | 5470 nM | 1740 nM | > 10000 nM | > 10000 nM | 6320 nM | > 10000 nM | 10000 nM | 5810 nM | 623 nM | 5190 nM | > 10000 nM | 8.69 nM | – | – | did not induce polyploidy | – | – | – |
| COc1ccc2c(c1)[C@]1(C[C@H]1c1ccc3c(/C=C/c4ccc(CN5C[C@@H](C)O[C@@H](C)C5)cc4)n[nH]c3c1)C(=O)N2 [CFI-400945, (1r,2s).2-(3-((e).4-(((cis).2,6-dimethylmorpholino)methyl)styryl). 1h.Indazol-6-yl)-5′-methoxyspiro[cyclopropane-1,3′-indolin]-2′-one] | – | – | – | 8400 nM | – | 94 nM | – | 5130 nM | – | – | – | – | – | – | – | – | – | 5830 nM | 8470 nM | – |
| COc1ccc2c(c1)/C(=C\c1ccc3c(/C=C/c4ccc(N5CCN(C)CC5)nc4)n[nH]c3c1)C(=O)N2 [CFI-400437] | 684 nM | > 10000 nM | 1920 nM | 6300 nM | > 10000 nM | 768 nM | 604 nM | 640 nM | 13.1 nM | 4.88 nM | 37.2 nM | 61.6 nM | 722 nM | 1.55 nM | induction of cell senescence | complete inhibition of colony formation in all cell lines | – | – | – | polyploidy (cell cycle analysis) ([17]; 500 nM): induction of polyploidy |
